Test results from patent US8063071B2 (GlaxoSmithKline, LLC, priority 2007, dated 2011).
Counter-ions that a name gives are not always drawn.

Assays:
[1] = test system: human monocyte stimulated cytokine production (TNF-α); assay: Monocyte assay (LPS-stimulated TNF-α production); format: cell-based; conditions: for IC50: 24 h, 200 ng/mL LPS, TNF-α by ELISA; for inhibition at 0.3 µM: read-out: inhibition at 300 nM in the monocyte assay
Protocol: Effect of IKK-β inhibition on human monocyte stimulated cytokine production was assessed as follows: Monocytes were isolated from heparinized whole blood by Ficoll gradient, followed by purification of CD14+ cells using MACS magnetic cell separation beads. Isolated monocytes were then adhered to 96-well culture plates at 1×10^6 cells/mL in RPMI 1640 10% FBS (JRH Biosciences, Lenexa Kans.) for 2 h. Test compounds are added to the wells 30 minutes prior to stimulation with a final vehicle concentration of 0.1% DMSO. Monocytes were activated by the addition of 200 ng/mL endotoxin (LPS; E. coli serotype 026:B6)(Sigma, St. Louis, Mo.) and incubated for 24 hrs at 37 C. Cell-free supernates were analyzed by ELISA for TNF-α using Pharmingen matched pair Abs. Viability of the cells was determined by 10% trypan blue exclusion.

[2] = target: T1, Recombinant human IKKβ (residues 1-737) (Homo sapiens, UniProt O14920); assay: IKK2 assay (TR-FRET); format: biochemical; conditions: ATP 1 μM final, read-out: pIC50 against IKK2 (converted)
T1 construct: Recombinant human IKKβ (residues 1-737); GST (C); made in house
T1 sequence (O14920 1-737): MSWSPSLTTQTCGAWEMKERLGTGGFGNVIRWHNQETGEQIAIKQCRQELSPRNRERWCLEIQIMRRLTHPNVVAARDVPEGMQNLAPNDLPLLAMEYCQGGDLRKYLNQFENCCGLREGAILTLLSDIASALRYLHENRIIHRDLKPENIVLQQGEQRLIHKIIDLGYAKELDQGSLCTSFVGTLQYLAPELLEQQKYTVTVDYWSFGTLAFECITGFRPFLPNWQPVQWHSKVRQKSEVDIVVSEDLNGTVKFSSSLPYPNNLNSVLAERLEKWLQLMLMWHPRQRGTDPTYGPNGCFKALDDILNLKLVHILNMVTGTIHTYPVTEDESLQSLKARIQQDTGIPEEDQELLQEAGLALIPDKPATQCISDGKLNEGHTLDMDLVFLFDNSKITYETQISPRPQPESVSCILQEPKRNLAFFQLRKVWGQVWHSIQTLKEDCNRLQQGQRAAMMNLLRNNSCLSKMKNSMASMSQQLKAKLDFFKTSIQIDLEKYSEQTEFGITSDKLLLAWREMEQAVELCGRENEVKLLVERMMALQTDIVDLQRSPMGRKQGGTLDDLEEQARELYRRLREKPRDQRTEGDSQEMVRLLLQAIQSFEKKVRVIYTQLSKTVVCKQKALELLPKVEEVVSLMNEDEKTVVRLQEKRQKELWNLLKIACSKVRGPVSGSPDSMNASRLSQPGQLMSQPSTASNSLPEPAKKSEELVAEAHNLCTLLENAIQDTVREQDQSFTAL
Summary of the method: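 TR-FRET readout (665 nm over 620 nm Eu reference) of GST-IB Ser32/36 phosphorylation after 60 min detection. Reaction: 1 μM ATP, 25 nM substrate, 0.5-5 nM GST-fused IKKβ 1-737 from baculovirus, pH 7.4 HEPES buffer, 1.7% DMSO, 15 min room temperature, EDTA-terminated.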

Structure (SMILES)	IC50 [1] [µM]	IC50 [2] [µM]	inhibition at 0.3 µM [1] [%]
CCS(=O)(=O)N1CCC(c2c[nH]c3c(C(N)=O)cc(-c4cccc(CNC[C@H](C)O)c4)cc23)CC1 [Example 22, 3-[1-(ethylsulfonyl)-4-piperidinyl]-5-[3-({[(2S)-2-hydroxypropyl]amino}methyl)phenyl]-1H-indole-7-carboxamide]	≤ 1.5	≤ 10	
CCNCc1cccc(-c2cc(C(N)=O)c3[nH]cc(C4CCN(S(=O)(=O)CC)CC4)c3c2)c1 [Example 23, 5-{3-[(ethylamino)methyl]phenyl}-3-[1-(ethylsulfonyl)-4-piperidinyl]-1H-indole-7-carboxamide]	≤ 1.5	≤ 10	
CCCNCc1cccc(-c2cc(C(N)=O)c3[nH]cc(C4CCN(S(=O)(=O)CC)CC4)c3c2)c1 [Example 24, 3-[1-(ethylsulfonyl)-4-piperidinyl]-5-{3-[(propylamino)methyl]phenyl}-1H-indole-7-carboxamide]	> 1	≤ 10	
CCS(=O)(=O)N1CCC(c2c[nH]c3c(C(N)=O)cc(-c4cccc(CNC(C)C)c4)cc23)CC1 [Example 25, 3-[1-(ethylsulfonyl)-4-piperidinyl]-5-(3-{[(1-methylethyl)amino]methyl}phenyl)-1H-indole-7-carboxamide]	≤ 1.5	≤ 10	
CCC(CC)NCc1cccc(-c2cc(C(N)=O)c3[nH]cc(C4CCN(S(=O)(=O)CC)CC4)c3c2)c1 [Example 26, 5-(3-{[(1-ethylpropyl)amino]methyl}phenyl)-3-[1-(ethylsulfonyl)-4-piperidinyl]-1H-indole-7-carboxamide]	≤ 1.5	≤ 10	
CCS(=O)(=O)N1CCC(c2c[nH]c3c(C(N)=O)cc(-c4ccc(CN5CCCCC5)cc4)cc23)CC1 [Example 27, 3-[1-(ethylsulfonyl)-4-piperidinyl]-5-[4-(1-piperidinylmethyl)phenyl]-1H-indole-7-carboxamide]	≤ 1.5	≤ 10	
CCS(=O)(=O)N1CCC(c2c[nH]c3c(C(N)=O)cc(-c4cccc(CNC)c4)cc23)CC1 [Example 28, 3-[1-(ethylsulfonyl)-4-piperidinyl]-5-{3-[(methylamino)methyl]phenyl}-1H-indole-7-carboxamide]	≤ 1.5	≤ 10	
CCS(=O)(=O)N1CCC(c2c[nH]c3c(C(N)=O)cc(-c4ccc(CN5CCOCC5)cc4)cc23)CC1 [Example 29, 3-[1-(ethylsulfonyl)-4-piperidinyl]-5-[4-(4-morpholinylmethyl)phenyl]-1H-indole-7-carboxamide]	≤ 1.5	≤ 10	
CCS(=O)(=O)N1CCC(c2c[nH]c3c(C(N)=O)cc(-c4ccc(CN)cc4)cc23)CC1 [Example 30, 5-[4-(aminomethyl)phenyl]-3-[1-(ethylsulfonyl)-4-piperidinyl]-1H-indole-7-carboxamide]	≤ 1.5	≤ 10	
CCS(=O)(=O)N1CCC(c2c[nH]c3c(C(N)=O)cc(-c4cccc(CNC5CC5)c4)cc23)CC1 [Example 31, 5-{3-[(cyclopropylamino)methyl]phenyl}-3-[1-(ethylsulfonyl)-4-piperidinyl]-1H-indole-7-carboxamide]	≤ 1.5	≤ 10	
CCS(=O)(=O)N1CCC(c2c[nH]c3c(C(N)=O)cc(-c4ccc5c(c4)C(NCC(C)C)CC5)cc23)CC1 (stereo not shown) [Example 33, 3-[1-(ethylsulfonyl)-4-piperidinyl]-5-{3-[(2-methylpropyl)amino]-2,3-dihydro-1H-inden-5-yl}-1H-indole-7-carboxamide trifluoroacetate]	≤ 1.5	≤ 10	
CCS(=O)(=O)N1CCC(c2c[nH]c3c(C(N)=O)cc(-c4cc(CNCCC#N)ccc4F)cc23)CC1 [Example 35, 5-(5-{[(2-cyanoethyl)amino]methyl}-2-fluorophenyl)-3-[1-(ethylsulfonyl)-4-piperidinyl]-1H-indole-7-carboxamide trifluoroacetate]	> 1	≤ 10	
CCS(=O)(=O)N1CCC(c2c[nH]c3c(C(N)=O)cc(-c4cc(CNCC(F)(F)F)ccc4F)cc23)CC1 [Example 36, 3-[1-(ethylsulfonyl)-4-piperidinyl]-5-(2-fluoro-5-{[(2,2,2-trifluoroethyl)amino]methyl}phenyl)-1H-indole-7-carboxamide trifluoroacetate]	> 1	≤ 10	

Further lines, with some results ahead:

IC50 [1] [µM]	IC50 [2] [µM]	Structure (SMILES)	inhibition at 0.3 µM [1] [%]
≤ 1.5	≤ 10	CCS(=O)(=O)N1CCC(c2c[nH]c3c(C(N)=O)cc(-c4ccc5c(c4)CNCC5)cc23)CC1 [Example 37, 3-[1-(ethylsulfonyl)-4-piperidinyl]-5-(1,2,3,4-tetrahydro-7-isoquinolinyl)-1H-indole-7-carboxamide trifluoroacetate]	
≤ 1.5	≤ 10	CCS(=O)(=O)N1CCC(c2c[nH]c3c(C(N)=O)cc(-c4cccc(CNCC(F)(F)F)c4)cc23)CC1 [Example 38, 3-[1-(ethylsulfonyl)-4-piperidinyl]-5-(3-{[(2,2,2-trifluoroethyl)amino]methyl}phenyl)-1H-indole-7-carboxamide trifluoroacetate]	
	≤ 10	CCS(=O)(=O)N1CCC(c2c[nH]c3c(C(N)=O)cc(-c4cccc(CN(C)CC(N)=O)c4)cc23)CC1 [Example 39, 5-(3-{[(2-amino-2-oxoethyl)(methyl)amino]methyl}phenyl)-3-[1-(ethylsulfonyl)-4-piperidinyl]-1H-indole-7-carboxamide trifluoroacetate]	0 to 60
	≤ 10	CCS(=O)(=O)N1CCC(c2c[nH]c3c(C(N)=O)cc(-c4csc(CNCC(F)(F)F)n4)cc23)CC1 [Example 40, 3-[1-(ethylsulfonyl)-4-piperidinyl]-5-(2-{[(2,2,2-trifluoroethyl)amino]methyl}-1,3-thiazol-4-yl)-1H-indole-7-carboxamide trifluoroacetate]	0 to 60
≤ 1.5	≤ 10	CCS(=O)(=O)N1CCC(c2c[nH]c3c(C(N)=O)cc(-c4csc(CN(C)C5CCN(C)CC5)c4)cc23)CC1 [Example 42, 3-[1-(ethylsulfonyl)-4-piperidinyl]-5-(5-{[methyl(1-methyl-4-piperidinyl)amino]methyl}-3-thienyl)-1H-indole-7-carboxamide trifluoroacetate]	
≤ 1.5	≤ 10	CCS(=O)(=O)N1CCC(c2c[nH]c3c(C(N)=O)cc(-c4csc(CN(C)CCC#N)c4)cc23)CC1 [Example 43, 5-(5-{[(2-cyanoethyl)(methyl)amino]methyl}-3-thienyl)-3-[1-(ethylsulfonyl)-4-piperidinyl]-1H-indole-7-carboxamide trifluoroacetate]	
≤ 1.5	≤ 10	CCS(=O)(=O)N1CCC(c2c[nH]c3c(C(N)=O)cc(-c4csc(CN(C)CC(N)=O)c4)cc23)CC1 [Example 44, 5-(5-{[(2-amino-2-oxoethyl)(methyl)amino]methyl}-3-thienyl)-3-[1-(ethylsulfonyl)-4-piperidinyl]-1H-indole-7-carboxamide trifluoroacetate]	
	≤ 10	CCS(=O)(=O)N1CCC(c2c[nH]c3c(C(N)=O)cc(-c4csc(CN(C)CCS(=O)(=O)c5ccccc5)c4)cc23)CC1 [Example 45, 3-[1-(ethylsulfonyl)-4-piperidinyl]-5-[5-({methyl[2-(phenylsulfonyl)ethyl]amino}methyl)-3-thienyl]-1H-indole-7-carboxamide trifluoroacetate]	0 to 60
	≤ 10	CCS(=O)(=O)N1CCC(c2c[nH]c3c(C(N)=O)cc(-c4csc(CN5CCCC5c5ccccc5)c4)cc23)CC1 (stereo not shown) [Example 46, 3-[1-(ethylsulfonyl)-4-piperidinyl]-5-{5-[(2-phenyl-1-pyrrolidinyl)methyl]-3-thienyl}-1H-indole-7-carboxamide]	0 to 60
	≤ 10	CCS(=O)(=O)N1CCC(c2c[nH]c3c(C(N)=O)cc(-c4csc(CN5CCCC5CN5CCCCC5)c4)cc23)CC1 (stereo not shown) [Example 47, 3-[1-(ethylsulfonyl)-4-piperidinyl]-5-(5-{[2-(1-piperidinylmethyl)-1-pyrrolidinyl]methyl}-3-thienyl)-1H-indole-7-carboxamide]	0 to 60
